From ChEMBL document CHEMBL1138377, “N-Substituted carbazolyloxyacetic acids modulate Alzheimer associated gamma-secretase” (Bioorg Med Chem Lett, 2007) come the findings set out here.

pEC50, pIC50: −log10 of the molar value. Activity calls are given as the source filed them. No cut-off for these calls is given here.

Series [1] concerns the target Gamma-secretase. The series is described as follows: Effect on gamma-secretase activity in human H4 cells expressing APP695 assessed as increase in Amyloid beta-38 formation by LPECL assay. Format: cell-based. As to conditions: read-out: IC50 (the source's name).
The target of series [2] is Gamma-secretase. The series is described as follows: Effect on gamma-secretase activity in human H4 cells expressing APP695 assessed as reduction of Amyloid beta42 formation LPECL assay. The class given is cell-based.
In the next series the test system is H4. The series is described as follows: Cytotoxicity against human H4 cells assessed as reduction of viability. Format: cell-based.
Series [3] concerns the target Gamma-secretase. The series is described as follows: Effect on gamma-secretase activity in human H4 cells expressing APP695 assessed as reduction of Amyloid beta-40 formation LPECL assay. The class given is cell-based.
Series [4] concerns the target T1, Prostaglandin G/H synthase 2 (Homo sapiens) (UniProt P35354).
T1 sequence (whole entry): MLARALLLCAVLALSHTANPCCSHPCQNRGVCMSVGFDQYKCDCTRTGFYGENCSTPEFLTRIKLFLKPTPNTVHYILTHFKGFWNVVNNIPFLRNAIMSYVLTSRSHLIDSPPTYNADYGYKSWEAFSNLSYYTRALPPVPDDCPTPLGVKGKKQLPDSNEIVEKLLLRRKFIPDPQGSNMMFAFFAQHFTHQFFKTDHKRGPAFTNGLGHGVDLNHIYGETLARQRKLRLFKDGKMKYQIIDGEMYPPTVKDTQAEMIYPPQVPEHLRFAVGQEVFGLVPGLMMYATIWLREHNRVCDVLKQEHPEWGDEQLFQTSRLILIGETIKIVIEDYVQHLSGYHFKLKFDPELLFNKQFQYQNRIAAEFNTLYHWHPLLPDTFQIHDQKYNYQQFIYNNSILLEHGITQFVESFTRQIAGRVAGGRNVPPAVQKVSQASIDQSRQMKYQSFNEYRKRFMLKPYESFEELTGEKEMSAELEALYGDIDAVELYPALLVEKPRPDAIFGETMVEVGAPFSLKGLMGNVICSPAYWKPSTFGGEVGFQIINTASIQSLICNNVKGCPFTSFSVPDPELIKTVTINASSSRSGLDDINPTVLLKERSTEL
The series is described as follows: Activity of COX2 at 10 uM.

Series [5] deals with Prostaglandin G/H synthase 1 (Homo sapiens) (UniProt P23219). The series is described as follows: Activity of COX1 at 10 uM.
Prostaglandin G/H synthase 1 (Homo sapiens), sequence (P23219 whole entry): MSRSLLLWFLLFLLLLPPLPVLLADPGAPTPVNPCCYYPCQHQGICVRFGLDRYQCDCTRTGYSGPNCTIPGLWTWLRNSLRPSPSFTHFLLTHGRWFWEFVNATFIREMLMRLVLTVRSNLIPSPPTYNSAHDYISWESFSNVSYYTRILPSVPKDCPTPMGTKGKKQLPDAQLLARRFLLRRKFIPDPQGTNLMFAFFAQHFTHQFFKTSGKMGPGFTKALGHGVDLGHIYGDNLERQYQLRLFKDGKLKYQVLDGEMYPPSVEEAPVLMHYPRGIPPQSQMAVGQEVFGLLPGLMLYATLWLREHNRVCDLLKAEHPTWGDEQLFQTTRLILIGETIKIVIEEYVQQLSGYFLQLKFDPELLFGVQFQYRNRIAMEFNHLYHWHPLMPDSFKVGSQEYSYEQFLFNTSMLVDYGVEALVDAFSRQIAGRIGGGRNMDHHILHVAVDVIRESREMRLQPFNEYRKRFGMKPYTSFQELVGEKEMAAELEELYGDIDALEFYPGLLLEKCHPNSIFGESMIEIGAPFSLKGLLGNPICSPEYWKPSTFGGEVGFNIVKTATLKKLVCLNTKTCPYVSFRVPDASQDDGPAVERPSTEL

By pIC50 is commonly meant the IC50 on a negative log10 scale, so that one unit is a factor of ten. In the case of `O=C(O)COc1ccc2c3ccccc3n(S(=O)(=O)c3ccc(-c4ccccc4)cc3)c2c1`, on Gamma-secretase [1], the pEC50 was 4.89. Moreover, the results for the pIC50 on Gamma-secretase [2] and at Gamma-secretase [3] were 4.62 and 4.40, respectively. For the same compound, in the series with H4, the Activity came out at 20 µM.
As to `O=C(O)COc1ccc2c3ccccc3n(S(=O)(=O)c3cc(F)cc(F)c3)c2c1`, on Gamma-secretase [1], the pEC50 was 4.89. In addition, the negative-log IC50 (pIC50) at Gamma-secretase [2] and on Gamma-secretase [3] was under 4.40 throughout. Also, in the series on H4, the Activity is 40 µM.
For the compound `CCCc1ccc(S(=O)(=O)n2c3ccccc3c3ccc(OCC(=O)O)cc32)cc1`, the pIC50 is 4.42 on Gamma-secretase [2] and under 4.40 at Gamma-secretase [3]. In addition, in the series on H4, the Activity is over 40 µM.
For the compound `O=C(O)COc1ccc2c3ccccc3n(S(=O)(=O)c3cccc([N+](=O)[O-])c3)c2c1`, on Gamma-secretase [1], the pEC50 was 4.80. The pIC50 on Gamma-secretase [2] and at Gamma-secretase [3] was under 4.40 in each case. Further, the Activity in the series on H4 is 40 µM.
Take `CC(C)c1cc(C(C)C)c(S(=O)(=O)n2c3ccccc3c3ccc(OCC(=O)O)cc32)c(C(C)C)c1`: the pEC50 at Gamma-secretase [1] is 5.11. Moreover, the negative-log IC50 (pIC50) at Gamma-secretase [2] is 5.12; at Gamma-secretase [3], 4.72. Also, the result in series [4] and in series [5] was inactive. Moreover, the Activity in the series on H4 is 20 µM.
On to `O=C(O)COc1ccc2c3ccccc3n(S(=O)(=O)c3ccc(Cl)cc3)c2c1`, for which, at Gamma-secretase [1], the pEC50 was 4.49. Besides, the figures for the pIC50 at Gamma-secretase [2] and at Gamma-secretase [3] were 4.49 and under 4.40, respectively. In addition, the Activity in the series on H4 is 40 µM.
In the case of `CCCCCCCCCn1c2ccccc2c2ccc(OCC(=O)O)cc21`, the pEC50 on Gamma-secretase [1] is 4.52. Further, the pIC50 is 4.77 at Gamma-secretase [2] and under 4.40 on Gamma-secretase [3]. Also, the Activity in the series with H4 was over 40 µM.
As to `CCCCCCCCn1c2ccccc2c2ccc(OCC(=O)O)cc21`, on Gamma-secretase [1], the pEC50 is 4.62. Moreover, the pIC50 on Gamma-secretase [2] was 4.72; on Gamma-secretase [3] it was under 4.40. Further, the Activity in the series on H4 was over 40 µM.
Regarding `CCCCCCCCCCn1c2ccc(Cl)cc2c2ccc(C(C)C(=O)O)cc21` (configuration not stated), the pEC50 on Gamma-secretase [1] is 5.24. Also, the pIC50 was 5.54 at Gamma-secretase [2] and under 4.40 on Gamma-secretase [3].
`CCCCCCCCCCn1c2ccccc2c2ccc(OCC(=O)O)cc21`: the negative logarithm of the IC50 (pIC50) at Gamma-secretase [2] was 4.96; on Gamma-secretase [3], under 4.40. Also, the Activity with H4 was over 40 µM.
For the compound `O=C(O)COc1ccc2c3ccccc3n(S(=O)(=O)c3cc(C(F)(F)F)cc(C(F)(F)F)c3)c2c1`, the pEC50 on Gamma-secretase [1] is under 4.40. In addition, the negative-log IC50 (pIC50) on Gamma-secretase [2] and on Gamma-secretase [3] was under 4.40 in each case. In addition, in the series with H4, the Activity came to 20 µM.
For `CCCCCCCCc1ccc(S(=O)(=O)n2c3ccccc3c3ccc(OCC(=O)O)cc32)cc1`, the pIC50 is 4.43 on Gamma-secretase [2] and under 4.40 at Gamma-secretase [3]. Further, in the series on H4, the Activity is over 40 µM.
For the compound `C[C@H](c1ccc(F)cc1CCCC(=O)O)N(c1cc(F)ccc1F)S(=O)(=O)c1ccc(Cl)cc1`, the negative-log IC50 (pIC50) on Gamma-secretase [2] is 8.15.
Regarding `Cc1ccc(S(=O)(=O)n2c3ccccc3c3ccc(OCC(=O)O)cc32)cc1`, the pEC50 at Gamma-secretase [1] was 4.89. The pIC50 was 4.41 at Gamma-secretase [2] and under 4.40 on Gamma-secretase [3]. Moreover, the Activity in the series on H4 is 20 µM.
For `CC(C)c1cc(C(C)C)c(S(=O)(=O)n2c3ccc(Cl)cc3c3ccc(C(C)C(=O)O)cc32)c(C(C)C)c1` (configuration not stated), the pEC50 at Gamma-secretase [1] was 5.03. Further, the negative-log IC50 (pIC50) at Gamma-secretase [2] was 5.07; at Gamma-secretase [3], under 4.70.
Take `O=C(O)COc1ccc2c3ccccc3n(S(=O)(=O)c3ccccc3Br)c2c1`: the pEC50 at Gamma-secretase [1] is under 4.40. For the same compound, the negative-log IC50 (pIC50) at Gamma-secretase [2] and on Gamma-secretase [3] was under 4.40 each time. In addition, the Activity with H4 turned out to be 40 µM.
With `O=C(O)COc1ccc2c(c1)[nH]c1ccccc12`, the pEC50 on Gamma-secretase [1] was under 4.40. Moreover, the pIC50 at Gamma-secretase [2] and at Gamma-secretase [3] was under 4.40 in each case. In addition, in the series on H4, the Activity is over 40 µM.
